Results as given in patent publication US20210283253A1, “COMPOSITIONS AND METHODS AGAINST P. AERUGINOSA INFECTIONS” (priority 2017, published 2021).
“Also recorded” adds a separate entry of the source.

Columns and labels:
[1] = system: Pseudomonas aeruginosa; assay: OPA with mAb/antibiotic combinations; assay type: cell-based; details: 90 minutes
Description: The assay is performed in 96-well microtiter plates with 1% BSA in MEM as the assay diluent. The Leukemia-derived human cell-line HL-60 is used as source of neutrophils. Differentiation of HL-60 cells into neutrophils is induced by addition of 100 mM Dimethylformamide (DMF). Neutrophil morphology is verified by expression of CD11b/Mac-1 marker using FACS. Neutrophils are washed, re-suspended in assay diluent, counted and diluted to a density of 2.5×10^7 cells/ml. Opsonization is mediated by Rabbit sera complement, diluted in assay diluent for a final dilution factor of 1:60. Freshly grown log-phase Pseudomonas strains are re-suspended and diluted in assay diluent to achieve a final ratio of neutrophils to bacteria of 20:1 to 40:1. Dilutions of Aerucin™ from 5 μg/ml to 100 ng/ml are prepared in assay diluent along with a commercial human IgG1 at 5 μg/ml as negative control. Other negative controls include assay mixtures with certain components (complements, neutrophils, antibodies) absent.
Equal volumes (50 μl) of each component are added to assay wells in the order of: antibodies, complement, neutrophils then bacteria. The components are mixed using a multichannel pipette. Samples at time zero are taken, diluted and plated on agar plates for titer determination. Assay plates are then incubated at 37° C. with shaking for 90 minutes. Samples are again taken, diluted and plated on agar plates.
(§1) Bacteria titers (CFU/ml) are determined for time-zero and 90-minute samples from colony counts on agar plates after overnight incubation at 37° C. Percent kills are calculated as the difference in titer at 90 minutes from time-zero, divided by the titer at time-zero: […].
The assay is performed as described above except that equal volumes (50 μl) of each component are added to assay wells in the order of: antibodies, antibiotic, complement, neutrophils, and then bacteria. Bacteria titers (CFU/ml) are measured directly after mixing all components and after 90 minutes incubation. The read-out of the assay (% kill) is how well the drug or combination of drugs can kill bacteria over these 90 minutes.
Averages from three independent experiments are presented.
Minimum inhibitory concentrations (MICs) of the antibiotics used in the OPA assays had been determined upfront (data not shown). […] Data for bactericidal antibiotics Cefepime and Piperacillin was generated with 1×MIC, for Aztreonam (bactericidal) with ½ MIC.

[2] = system: P. aeruginosa; details: cited from earlier work
[3] = system: Pseudomonas aeruginosa; assay: Opsonic phagocytosis assay (OPA) with Aerucin; assay type: cell-based
Text: FIG. 3. […] The opsonic phagocytosis assay (OPA) measures potency of antibodies based on the ability to initiate and mediate destruction of their specific targets by neutrophils. The assay utilizes purified complement from goat, rabbit, guinea pig or human sera, and neutrophils either isolated from whole blood or from differentiation of parental cell lines. Various concentrations of the antibody of interest, along with controls, are mixed with antigens. Complement serum and neutrophils are then added at certain ratios. After incubation to allow phagocytosis to occur, fractions of remaining antigens are then quantified by plating (bacteria) on agar plates to enumerate bacterial colonies remaining from the titer that was used at the start of the assay reaction. […]
The assay is performed in 96-well microtiter plates with 1% BSA in MEM as the assay diluent. […] Neutrophils are washed, re-suspended in assay diluent, counted and diluted to a density of 2.5×10^7 cells/ml. […]
as §1

[4] = 4 μg/ml antibiotic alone (Cefepime 1× MIC, Aztreonam ½ MIC)

Molecule: CCN1CCN(C(=O)N[C@@H](C(=O)N[C@@H]2C(=O)N3[C@@H]2SC(C)(C)[C@@H]3C(=O)O)c2ccccc2)C(=O)C1=O [Piperacillin]
- % Kill ([1]; 8 μg/ml Piperacillin alone (1× MIC)): ~40%

Molecule: Colistin
- % Kill ([1]; 2 μg/ml Colistin alone (2× MIC)): ~20%

Molecule: CO/N=C(\C(=O)N[C@@H]1C(=O)N2C(C(=O)[O-])=C(C[N+]3(C)CCCC3)CS[C@H]12)c1csc(N)n1 [Cefepime]
- % Kill [1, 4]: 40%

Molecule: C[C@H]1[C@H](NC(=O)/C(=N\OC(C)(C)C(=O)O)c2csc(N)n2)C(=O)N1S(=O)(=O)O [Aztreonam]
- % Kill [1, 4]: 60%

Molecule: O=C(O)c1cn(C2CC2)c2cc(N3CCNCC3)c(F)cc2c1=O [Ciprofloxacin]
- % Kill ([1]; 0.5 μg/ml Ciprofloxacin alone (2× MIC)): does not show bacterial killing

Molecule: Panobacumab: anti-P. aeruginosa serotype 011 lipopolysaccharide monoclonal antibody
- activity on a meropenem resistant P. aeruginosa strain ([2]; meropenem resistant strain): retained activity
- bacterial clearance from the lung ([2]; neutropenic host): enhanced bacterial clearance
- lung inflammation ([2]; neutropenic host): significantly reduced lung inflammation

B1: Aerucin: anti-Pseudomonas aeruginosa MEP binding human monoclonal antibody; heavy chain variable SEQ ID NO: 5, light chain variable SEQ ID NO: 7 (antibody, listed as Homo sapiens, V domains shown)
VH: QLQLQESGPGLVKPTETLSLTCTVSGGPITYINYYWGWVRQPPGKGLEWIGSIHYDGSTFYNPSLKSRVTISGDTSKSEFSVKLSSVTAADTAVYYCARTYYDASGSPYFDHWGQGTLVTVSS
VL: QSVLTQPPSVSAAPGQKVSISCSGSSSNIGNNYVSWYQQLPGTAPNLLIYDNNKRPSGIPDRFSGSKSGTSATLDITGLQSGDEADYYCGTWDSSLSTWVFGGGTKLTVL
- % Kill ([1]; 50 ng/ml Aerucin alone): around 5%
- opsonic phagocytosis: killing over negative controls ([3]; Aerucin 5 μg/ml to 100 ng/ml, rabbit complement, HL-60 neutrophils, 90 minutes): significant increase in killing over negative controls in a dose-dependent manner
- killing of P. aeruginosa in the absence of complement ([3]; OPA without complement, a number of Pa strains (Pa 2410, Pa 27853, Pa PGO2338)): killing of P. aeruginosa bacteria in the absence of complement; also recorded: killing was observed in the absence of complement
